# Source: patent US11174245B2, “Benzimidazole compounds and derivatives as EGFR inhibitors” (Boehringer Ingelheim International GmbH, priority 2018, dated 2021)
# Read-outs that look alike come from different tables or passages of the source.
# Experiments:
# [1] = target: EGFR del19 T790M C797S protein in Ba/F3 cells (Homo sapiens, UniProt P00533, C797S/DEL746-750/T790M); test: pEGFR assay (AlphaScreen Surefire, EGFR Tyr1068 phosphorylation); format: cell-based
# Procedure: Transduced cells were selected using puromycin. Following selection, IL-3 was withdrawn and IL-3 independent cells cultured. p-EGFR Tyr1068 was determined using the AlphaScreen Surefire pEGF Receptor (Tyr1068) Assay (PerkinElmer, TGRERS). […] Subsequently, 60.000 cells/well in 60 μL were added. Cells were incubated with compound for 4 h at 37° C. […] The mixture was incubated at room temperature with shaking (700 rpm) for 20 min. After centrifugation, 4 μL of the lysate were transferred to Proxiplates. […] Plates were shaken for 1 min (1400 rpm) and incubated for 2 h at room temperature in the dark.
# The results of the assay are provided as IC50 values (see table 12).
# [2] = target: EGFR (mutated) 695-1022, T790M, C797S, L858R (Homo sapiens (Human), UniProt P00533, C797S/L858R/T790M); test: Biochemical EGFR inhibition assay (TR-FRET, poly-GT substrate), EGFR T790M C797S L858R
# Procedure: (§1) Biochemical EGFR Inhibition Assays
# (§2) Initially, the inhibitory effect of compounds according to the invention is measured in biochemical assays which measure the phosphorylation activity of EGFR enzyme forms on poly-GT substrate in the presence of different concentrations of ATP (5 μM and 100 μM final assay concentration).
# (§3) The following enzyme forms of EGFR are representative examples that can be used in these assays at the given concentrations:
# (§4) For the chosen highest assay concentration of 100 μM, 150 nL of compound solution is transferred from a 10 mM DMSO compound stock solution. A series of eleven fivefold dilutions per compound is transferred to the assay plate, compound dilutions are tested in duplicates. DMSO is added as backfill to a total volume of 150 nL. The assay runs on a fully automated robotic system.
# (§5) These biochemical EGFR enzyme form compound dose-response assays quantify the kinase activity via phosphorylation of a tagged poly-GT substrate. The results of the assay are provided as IC50 values.
# EGFR wt = EGFR wt (Homo sapiens (Human), UniProt P00533); test: Biochemical EGFR inhibition assay (TR-FRET, poly-GT substrate), EGFR wt
# Procedure: as §1, §2, §3, §4, §5
# [3] = read-out: LR_TM_CS (100 μM ATP) IC50, 100 μM ATP
# [4] = read-out: wt (100 μM ATP) IC50, 100 μM ATP
# [5] = read-out: LR_TM_CS (5 μM ATP) IC50, 5 μM ATP
# [6] = read-out: wt (5 μM ATP) IC50, 5 μM ATP
# Sequence of EGFR (mutated) 695-1022, T790M, C797S, L858R (P00533 695-1022 T790M/C797S/L858R): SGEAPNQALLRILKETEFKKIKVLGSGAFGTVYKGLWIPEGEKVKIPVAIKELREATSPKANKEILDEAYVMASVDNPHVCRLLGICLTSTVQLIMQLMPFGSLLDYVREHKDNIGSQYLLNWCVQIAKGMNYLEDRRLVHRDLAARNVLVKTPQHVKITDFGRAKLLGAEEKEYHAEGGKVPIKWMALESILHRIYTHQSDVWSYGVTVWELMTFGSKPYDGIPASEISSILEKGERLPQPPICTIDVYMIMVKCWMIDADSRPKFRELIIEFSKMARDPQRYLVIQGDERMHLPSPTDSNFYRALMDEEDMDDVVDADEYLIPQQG
# Sequence of EGFR wt (P00533 25-1210): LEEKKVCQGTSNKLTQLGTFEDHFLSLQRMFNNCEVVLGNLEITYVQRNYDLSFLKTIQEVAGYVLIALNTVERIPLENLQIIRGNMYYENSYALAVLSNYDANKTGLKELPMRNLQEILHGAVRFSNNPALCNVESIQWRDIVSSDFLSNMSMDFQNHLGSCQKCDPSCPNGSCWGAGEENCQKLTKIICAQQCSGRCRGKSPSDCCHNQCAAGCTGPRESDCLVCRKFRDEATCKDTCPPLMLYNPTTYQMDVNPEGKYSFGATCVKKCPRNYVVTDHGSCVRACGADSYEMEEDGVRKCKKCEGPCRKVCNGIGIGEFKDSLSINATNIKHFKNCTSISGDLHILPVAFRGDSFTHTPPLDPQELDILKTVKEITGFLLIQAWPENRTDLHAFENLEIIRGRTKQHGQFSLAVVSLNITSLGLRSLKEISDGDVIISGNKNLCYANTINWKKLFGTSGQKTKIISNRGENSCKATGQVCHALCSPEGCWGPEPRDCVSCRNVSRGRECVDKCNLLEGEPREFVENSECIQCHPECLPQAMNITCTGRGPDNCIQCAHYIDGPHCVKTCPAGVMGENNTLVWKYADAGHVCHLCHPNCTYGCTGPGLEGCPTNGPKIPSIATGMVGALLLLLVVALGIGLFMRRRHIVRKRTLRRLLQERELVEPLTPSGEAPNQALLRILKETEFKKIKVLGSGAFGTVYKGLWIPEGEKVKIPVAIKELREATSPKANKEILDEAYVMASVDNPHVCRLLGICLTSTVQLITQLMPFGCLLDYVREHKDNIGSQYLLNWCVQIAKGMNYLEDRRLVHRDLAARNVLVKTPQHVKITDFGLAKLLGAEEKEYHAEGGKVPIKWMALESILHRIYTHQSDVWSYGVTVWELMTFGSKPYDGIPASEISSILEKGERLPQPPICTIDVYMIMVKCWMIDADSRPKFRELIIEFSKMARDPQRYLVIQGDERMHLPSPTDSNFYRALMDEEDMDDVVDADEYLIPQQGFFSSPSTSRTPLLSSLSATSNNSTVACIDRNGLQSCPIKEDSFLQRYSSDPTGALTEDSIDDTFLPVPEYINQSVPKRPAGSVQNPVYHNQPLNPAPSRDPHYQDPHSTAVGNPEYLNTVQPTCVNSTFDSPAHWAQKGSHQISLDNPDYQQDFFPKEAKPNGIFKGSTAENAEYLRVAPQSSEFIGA
# Sequence of EGFR del19 T790M C797S protein in Ba/F3 cells (P00533 with tags, fused parts or gaps C797S/DEL746-750/T790M limits assumed): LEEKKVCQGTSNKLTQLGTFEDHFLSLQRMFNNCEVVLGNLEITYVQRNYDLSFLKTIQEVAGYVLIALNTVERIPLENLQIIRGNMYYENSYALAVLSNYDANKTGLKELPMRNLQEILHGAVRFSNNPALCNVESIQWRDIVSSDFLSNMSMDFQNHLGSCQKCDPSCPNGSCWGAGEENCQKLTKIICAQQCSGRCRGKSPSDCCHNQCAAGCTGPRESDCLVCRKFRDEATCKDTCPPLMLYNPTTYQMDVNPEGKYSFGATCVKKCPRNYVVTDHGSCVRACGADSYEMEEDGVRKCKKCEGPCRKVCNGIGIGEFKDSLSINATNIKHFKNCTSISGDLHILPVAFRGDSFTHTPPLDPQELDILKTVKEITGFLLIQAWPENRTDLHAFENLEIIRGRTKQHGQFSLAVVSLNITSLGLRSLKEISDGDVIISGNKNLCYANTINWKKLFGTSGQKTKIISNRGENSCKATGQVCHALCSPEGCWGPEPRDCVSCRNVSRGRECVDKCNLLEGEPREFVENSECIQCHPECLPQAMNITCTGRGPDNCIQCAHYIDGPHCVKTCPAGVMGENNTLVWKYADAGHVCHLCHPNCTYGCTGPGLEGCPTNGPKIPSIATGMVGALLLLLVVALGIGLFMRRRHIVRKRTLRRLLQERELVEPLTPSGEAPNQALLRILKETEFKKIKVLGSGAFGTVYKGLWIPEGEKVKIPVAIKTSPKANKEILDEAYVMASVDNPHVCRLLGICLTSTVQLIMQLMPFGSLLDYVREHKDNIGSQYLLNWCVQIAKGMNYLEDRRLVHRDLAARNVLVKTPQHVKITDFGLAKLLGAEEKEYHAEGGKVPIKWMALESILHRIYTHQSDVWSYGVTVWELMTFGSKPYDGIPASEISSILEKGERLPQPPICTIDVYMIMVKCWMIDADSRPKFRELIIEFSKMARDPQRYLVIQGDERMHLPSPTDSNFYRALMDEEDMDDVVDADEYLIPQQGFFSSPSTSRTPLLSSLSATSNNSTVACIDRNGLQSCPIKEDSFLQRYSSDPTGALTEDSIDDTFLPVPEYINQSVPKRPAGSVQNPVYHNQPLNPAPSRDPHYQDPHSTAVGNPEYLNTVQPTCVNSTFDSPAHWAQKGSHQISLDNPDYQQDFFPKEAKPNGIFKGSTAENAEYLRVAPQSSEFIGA
structure (smiles),measurement,setting,value
COc1ccncc1-c1cc(C(=O)/N=c2\[nH]c3ccccc3n2CC(C)(C)O)ccn1 [I-018],IC50,[1],0.001 µM
same,IC50,[2]; [3],0.0119 µM
same,IC50,EGFR wt; [4],10 µM
Cn1cc(-c2cc(C(=O)/N=c3\[nH]c4cc(C5CCN(C6CC6)CC5)ccc4n3CC(C)(C)O)ccn2)cn1 [I-042],IC50,[1],0.003 µM
same,IC50,[2]; [3],0.0243 µM
same,IC50,EGFR wt; [4],14.6 µM
CC(C)(O)Cn1/c(=N/C(=O)c2ccnc(-c3cccnc3)c2)[nH]c2cc(CCO)ccc21 [I-056],IC50,[1],0.005 µM
same,IC50,[2]; [5],0.118 µM
same,IC50,EGFR wt; [6],> 100 µM
COc1ccccc1-c1cc(C(=O)/N=c2\[nH]c3cc(CN4CCOCC4)ccc3n2CC(C)(C)O)ccn1 [I-060],IC50,[1],0.001 µM
same,IC50,[2]; [5],0.0007 µM
same,IC50,EGFR wt; [6],0.0656 µM
CC(C)(O)Cn1/c(=N/C(=O)c2ccnc(-c3ccccc3)c2)[nH]c2ccccc21 [I-064],IC50,[1],0.009 µM
same,IC50,[2]; [5],0.0131 µM
same,IC50,[2]; [3],0.267 µM
same,IC50,EGFR wt; [6],> 4 µM
same,IC50,EGFR wt; [4],> 100 µM
COCCCNc1ccc2c(c1)[nH]/c(=N\C(=O)c1ccnc(-c3cccnc3)c1)n2CC(C)(C)O [I-78],IC50,[1],0.005 µM
same,IC50,[2]; [3],0.0952 µM
same,IC50,EGFR wt; [4],21.1 µM
CC(C)(O)Cn1/c(=N/C(=O)c2ccnc(-c3cccn4cnnc34)c2)[nH]c2ccccc21 [I-91],IC50,[1],0.016 µM
same,IC50,[2]; [5],0.0611 µM
same,IC50,EGFR wt; [6],14.7 µM
CN(C)Cc1cccc(-c2cc(C(=O)/N=c3\[nH]c4ccccc4n3CC(C)(C)O)ccn2)c1 [I-102],IC50,[1],0.002 µM
same,IC50,[2]; [5],0.001 µM
same,IC50,[2]; [3],0.0137 µM
same,IC50,EGFR wt; [6],0.213 µM
same,IC50,EGFR wt; [4],6.06 µM
COc1ccccc1-c1cc(C(=O)/N=c2\[nH]c3ccccc3n2CC(C)(C)O)ccn1 [I-105],IC50,[1],0.002 µM
same,IC50,[2]; [5],0.0007 µM
same,IC50,[2]; [3],0.0103 µM
same,IC50,EGFR wt; [4],1.8 µM
O=C(/N=c1\[nH]c2ccccc2n1[C@H]1CC[C@@H](O)CC1)c1ccnc(-c2ccccc2)c1 [I-107],IC50,[1],0.004 µM
same,IC50,[2]; [5],0.0018 µM
same,IC50,[2]; [3],0.0457 µM
same,IC50,EGFR wt; [6],0.337 µM
same,IC50,EGFR wt; [4],> 100 µM
COc1ccccc1-c1cc(C(=O)/N=c2\[nH]c3ccccc3n2[C@H]2CC[C@@H](O)CC2)ccn1 [I-108],IC50,[1],0.003 µM
same,IC50,[2]; [5],0.0006 µM
same,IC50,[2]; [3],0.0103 µM
same,IC50,EGFR wt; [6],0.0193 µM
same,IC50,EGFR wt; [4],1.01 µM
Cc1ccc2c(c1)[nH]/c(=N\C(=O)c1ccnc(-c3cnn4cccnc34)c1)n2[C@H]1CC[C@@H](O)CC1 [I-110],IC50,[1],0.001 µM
same,IC50,[2]; [3],0.0037 µM
same,IC50,EGFR wt; [4],4.42 µM
Cc1ccc2c(c1)[nH]/c(=N\C(=O)c1ccnc(-c3cccc(CN(C)C)c3)c1)n2[C@H]1CC[C@@H](O)CC1 [I-111],IC50,[1],0.004 µM
same,IC50,[2]; [3],0.0103 µM
same,IC50,EGFR wt; [4],7.04 µM
Cn1cc(-c2cc(C(=O)/N=c3\[nH]c4ccccc4n3[C@H]3CCC[C@@H](O)C3)ccn2)cn1 [I-112],IC50,[1],0.013 µM
same,IC50,[2]; [5],0.0031 µM
same,IC50,EGFR wt; [6],0.777 µM
CN(C)Cc1cccc(-c2cc(C(=O)/N=c3\[nH]c4ccccc4n3[C@H]3CC[C@@H](O)CC3)ccn2)c1 [I-114],IC50,[1],0.002 µM
same,IC50,[2]; [3],0.0186 µM
same,IC50,EGFR wt; [4],6.65 µM
O=C(/N=c1\[nH]c2ccccc2n1[C@H]1CC[C@@H](O)CC1)c1ccnc(-c2cnn3cccnc23)c1 [I-115],IC50,[1],0.001 µM
same,IC50,[2]; [3],0.0058 µM
same,IC50,EGFR wt; [4],2.42 µM
Cn1cc(-c2cc(C(=O)/N=c3\[nH]c4ccccc4n3[C@H]3CCC[C@H](O)C3)ccn2)cn1 [I-116],IC50,[1],0.001 µM
same,IC50,[2]; [5],0.0007 µM
same,IC50,EGFR wt; [6],0.104 µM
COc1ccccc1-c1cc(C(=O)/N=c2\[nH]c3ccccc3n2[C@H]2CCC[C@@H](O)C2)ccn1 [I-118],IC50,[1],0.003 µM
same,IC50,[2]; [5],0.0007 µM
same,IC50,EGFR wt; [6],0.0345 µM
Cn1cc(-c2cc(C(=O)/N=c3\[nH]c4ccccc4n3[C@H]3CCC[C@@H](O)C3)ccn2)cn1 [I-126],IC50,[1],0.006 µM
same,IC50,[2]; [5],0.0031 µM
same,IC50,EGFR wt; [6],0.305 µM
Cn1cc(-c2cc(C(=O)/N=c3\[nH]c4ccccc4n3[C@@H]3CCC[C@H](O)C3)ccn2)cn1 [I-128],IC50,[1],0.007 µM
same,IC50,[2]; [5],0.004 µM
same,IC50,EGFR wt; [6],1.13 µM
CC(C)(O)Cn1/c(=N/C(=O)c2ccnc(-c3cccnc3)c2)[nH]c2cc(CC(=O)N3CCCCC3)ccc21 [I-130],IC50,[1],0.005 µM
same,IC50,[2]; [3],0.178 µM
same,IC50,EGFR wt; [4],> 100 µM
COC[C@H]1CCCN1Cc1ccc2c(c1)[nH]/c(=N\C(=O)c1ccnc(-c3ccccc3OC)c1)n2[C@H]1CC[C@@H](O)CC1 [I-152],IC50,[1],0.004 µM
COc1ccccc1-c1cc(C(=O)/N=c2\[nH]c3cc(CN4CCCC(OC)C4)ccc3n2[C@H]2CC[C@@H](O)CC2)ccn1 (some centres unmarked) [I-153],IC50,[1],0.004 µM
Cn1cc(-c2cc(C(=O)/N=c3\[nH]c4ccccc4n3[C@@H]3CCCC[C@H]3O)ccn2)cn1 [I-154],IC50,[1],0.009 µM
COc1ccccc1-c1cc(C(=O)/N=c2\[nH]c3ccccc3n2[C@H]2COCC[C@@H]2O)ccn1 [I-155],IC50,[1],0.005 µM
COc1ccccc1-c1cc(C(=O)/N=c2\[nH]c3cc(CN4CC[C@@H](OC)C4)ccc3n2[C@H]2CC[C@@H](O)CC2)ccn1 [I-159],IC50,[1],0.006 µM
O=C(/N=c1\[nH]c2ccccc2n1[C@H]1CC[C@@H](O)CC1)c1ccnc(-c2ccccc2Cl)c1 [I-160],IC50,[1],0.006 µM
COc1cnccc1-c1cc(C(=O)/N=c2\[nH]c3ccccc3n2CC(C)(C)O)ccn1 [I-164],IC50,[1],0.007 µM
Cn1cc(-c2cc(C(=O)/N=c3\[nH]c4cc(C5CCCCO5)ccc4n3CC(C)(C)O)ccn2)cn1 (centres unmarked) [I-165],IC50,[1],0.007 µM
Cc1ccccc1-c1cc(C(=O)/N=c2\[nH]c3ccccc3n2[C@H]2CC[C@@H](O)CC2)ccn1 [I-166],IC50,[1],0.007 µM
COc1ccccc1-c1cc(C(=O)/N=c2\[nH]c3ccccc3n2[C@H]2CCC[C@H](O)C2)ccn1 [I-170],IC50,[1],0.008 µM
CNc1ccc2c(c1)[nH]/c(=N\C(=O)c1ccnc(-c3cnn(C)c3)c1)n2CC(C)(C)O [I-172],IC50,[1],0.009 µM
COc1ncccc1-c1cc(C(=O)/N=c2\[nH]c3ccccc3n2[C@H]2CC[C@@H](O)CC2)ccn1 [I-173],IC50,[1],0.009 µM
O=C(/N=c1\[nH]c2ccccc2n1[C@H]1CC[C@@H](O)CC1)c1ccnc(-c2coc3ccccc23)c1 [I-174],IC50,[1],0.009 µM
O=C(/N=c1\[nH]c2ccccc2n1[C@H]1CC[C@@H](O)CC1)c1ccnc(-c2ccc(F)cc2)c1 [I-177],IC50,[1],0.012 µM
Cn1cc(-c2cc(C(=O)/N=c3\[nH]c4cc(CCC(C)(C)O)ccc4n3CC(C)(C)O)ccn2)cn1 [I-178],IC50,[1],0.012 µM
Cn1cnc2c(-c3cc(C(=O)/N=c4\[nH]c5ccccc5n4[C@H]4CC[C@@H](O)CC4)ccn3)cccc21 [I-182],IC50,[1],0.015 µM
COc1ccccc1-c1cc(C(=O)/N=c2\[nH]c3ccccc3n2[C@H]2CCCC[C@H]2O)ccn1 [I-186],IC50,[1],0.023 µM
O=C(/N=c1\[nH]c2ccccc2n1[C@H]1CC[C@@H](O)CC1)c1ccnc(-c2ccccc2OC(F)(F)F)c1 [I-187],IC50,[1],0.024 µM
CC(C)(O)Cn1/c(=N/C(=O)c2ccnc(-n3ccc4cccnc43)c2)[nH]c2ccccc21 [I-188],IC50,[1],0.03 µM
Cn1cc(-c2cc(C(=O)/N=c3\[nH]c4ccccc4n3[C@H]3COCC[C@@H]3O)ccn2)cn1 [I-190],IC50,[1],0.033 µM
CCOC(=O)CCc1ccc2c(c1)[nH]/c(=N\C(=O)c1ccnc(-c3cnn(C)c3)c1)n2CC(C)(C)O [I-193],IC50,[1],0.068 µM
Cn1cc(-c2cc(C(=O)/N=c3\[nH]c4cc(F)ccc4n3CC(C)(C)O)ccn2)cn1 [I-194],IC50,[1],0.074 µM
Cn1cc(-c2cc(C(=O)/N=c3\[nH]c4ccc(F)cc4n3CC(C)(C)O)ccn2)cn1 [I-195],IC50,[1],0.085 µM
Cn1cc(-c2cc(C(=O)/N=c3\[nH]c4cc(C5CCNCC5)ccc4n3[C@H]3CC[C@@H](O)CC3)ccn2)cn1 [I-218],IC50,[1],0.018 µM
O=C(/N=c1\[nH]c2ccccc2n1[C@H]1CC[C@@H](O)CC1)c1ccnc(-n2ccnc2)c1 [I-226],IC50,[1],0.007 µM
Cc1cc(C(=O)/N=c2\[nH]c3ccc(N4CCN(C)CC4)cc3n2[C@H]2CC[C@@H](O)CC2)cc(-c2cnn(C)c2)n1 [I-227],IC50,[1],0.002 µM
Cc1cc(C(=O)/N=c2\[nH]c3ccc(C4CCN(C)CC4)cc3n2C2CCCCC2)cc(-c2cnn(C)c2)n1 [I-228],IC50,[1],0.002 µM
COCCN1CCC(c2ccc3[nH]/c(=N\C(=O)c4cc(C)nc(-c5cnn(C)c5)c4)n(C4CCCCC4)c3c2)CC1 [I-229],IC50,[1],0.023 µM
Cc1cc2c(cc1N(C)C)[nH]/c(=N\C(=O)c1ccnc(-c3cnn(C)c3)c1)n2CC(C)(C)O [I-231],IC50,[1],0.063 µM
CN1CCN(c2ccc3[nH]/c(=N\C(=O)c4cc(F)nc(-c5cnn(C)c5)c4)n(C4CCCCC4)c3c2)CC1 [I-232],IC50,[1],0.001 µM
Cc1cc(C(=O)/N=c2\[nH]c3ccc(N4CCN(C)CC4)cc3n2C2CCCCC2)cc(-c2cnn(C)c2)n1 [I-233],IC50,[1],0.002 µM
COc1ccccc1-c1cc(C(=O)/N=c2\[nH]c3ccccc3n2[C@@H]2CC[C@@H](O)[C@@H](O)C2)ccn1 [I-234],IC50,[1],0.004 µM
